According to US20110153302A1, “IDENTIFICATION OF DRUG EFFECTS ON SIGNALING PATHWAYS USING INTEGER LINEAR PROGRAMMING” (Massachusetts Institute of Technology, priority 2009, published 2011):
Entries after “also recorded” stand apart in the source; their conditions may differ.

Legend:
HepG2 cells = test: Bead-based multiplexed (Luminex xMAP) measurement of 13 key phosphorylation events in cells treated with drugs and ligands; assay type: cell-based
Protocol: HepG2 cells were purchased from ATCC (Manassas, Va.), and seeded on 96-well plates coated with collagen type I-coated (BD Biosciences, Franklin Lakes, N.J.) at 30,000 cells/well in DME medium containing 10% Fetal Bovine Serum (FBS). The following morning, cells were starved for 4 hours and treated with inhibitors and/or drugs. Kinase inhibitors were used at concentrations sufficient to inhibit at least 95% the phosphorylation of the nominal target as determined by dose-response assays (presented in [17]). […] was chosen as the nominal target for Lapatinib, Erlotinib, and Gefitinib. The following saturated concentrations were used: p38 (PHA818637, 20 nM), MEK (PD325901, 100 nM) and cMET (JNJ38877605, 1 μM), PI3K (PI-103, 10 μM), Lapatinib at 3 uM [47], Erlotinib at 1 uM [47], Gefitinib at 3 uM [47], and Sorafenib at 3 uM (based on its inhibitory activity on ERK1/2 phosphorylation). Following incubation for 45 minutes with inhibitors and/or drugs cells were treated with saturated levels of 5 ligands: Tumor Necrosis Factor alpha (TNFα) at 100 ng/ml, Interleukin 1 alpha (IL1α) at 10 ng/ml, Insulin (INS) at 2 uM, Transforming Growth Factor (TGFα) at 100 ng/ml, and Hepatocytes Growth Factor (HGF) at 100 ng/ml. Each ligand was added alone or in pairs and cell lysates were collected at 0, 5, and 25 minutes following the cytokine stimulation. The 5 and 25 minutes lysates were mixed together in 1:1 ratio and the mixed lysate was measured as an indicator of the “average early signaling response”. The 5 and 25 minute time points were identified in a preliminary experiment as the optimal time points that maximally captured early phosphorylation activities.
(§1) From each lysate we measured 13 phosphorylation activities that we considered “key phosphorylation events” using a Luminex 200 system (Luminex Corp, Austin, Tex.). The 13-plex phospho-protein bead set from Bio-Rad was used to assay p70S6K (Thr421/Ser424), CREB (Ser133), p38 (Thr180/Tyr182), MEK1 (Ser217/Ser221), JNK (Thr183/Tyr185), HSP27 (Ser78), ERK1/2 (Thr202/Tyr204, Thr185/Tyr187), c-JUN (Ser63), IRS-1 (Ser636/Ser639), IκB-α (Ser32/Ser36), Histone H3 (Ser10), Akt (Ser473), and IR-β (Tyr1146). Data were normalized and plotted using with DataRail. For the construction of the dose response curve in FIG. 3i, HepG2 were starved for 4 hours and then incubated with Gefitinib (from 20 uM down to 27 nM-3 fold dilution) for 45 minutes followed by incubation with IL1α at 10 ng/ml final concentration for 30 minutes. Duplicate lysates were analyzed using the c-JUN (Ser63) beads in the Luminex 200 system.
High-throughput bead-based ELISA-type experiments using xMAP technology (Luminex, Tex., USA) are performed as briefly described in the Materials and Methods section and in [17]. We create two datasets: one for the construction of cell-type specific topology and another for the identification of the mechanisms of drug actions. […] For the purpose of this paper, we refer to “inhibitors” as the compounds for which we know the target and we use them in a concentration capable to block ˜95% of the downstream protein. Conversely, we refer to “drugs” as the compounds for which we assume no a-priori knowledge of their target. For each combination of cytokine and drug/inhibitor we collect cell lysates at 5 and 25 minutes. The two time points are pooled together in 1:1 ratio and the mixed lysates are used as an indicator of the “average early signaling response”. For each treatment we measure 13 protein phosphorylations that we consider “key protein activities” (raw data in FIG. 4). The key phosphorylation signals (listed in Materials and Methods) are chosen based on the availability of the reagents and quality controls performed at the early phases of the experimental setup. […]

HepG2 specific topology = test: Drug-induced topology alterations: ILP fit of the HepG2 specific topology to drug-induced phosphoprotein data; conditions: for Drug effect on the JNK→c-JUN branch / Drug effect on downstream reactions of the TGFα branch (TGFα→GRB2→SOS→RAS→PI3K and RAS→RAF1→MEK1/2→ERK1/2): reactions removed from HepG2 topology by ILP, Gefitinib 3 uM; for Effect on c-Jun signaling: summary statement in the personalized medicine section
Description: Here, we describe how the Boolean model described in [18] can be reformulated as an ILP. Note that such a transformation was recently performed for a different problem, namely the satisfiability, by. A pathway is defined as a set of reactions i=1, . . . , nr and species j=1, . . . , ns. Each reaction has three corresponding index sets, namely the index set of signaling molecules Ri, inhibitors Ii, and “products” Pi (“product” can also correspond to the phosphorylation level of the protein). These sets are all subsets of the species index set (Ri,Ii,Pi⊂{1, . . . , ns}). Typically, these subsets have very small cardinality (few species), e.g., |Ri|=0,1,2;|Ii|=0,1;|Pi|=1,2;|Ri|+|Ii|=1,2. A reaction takes place if and only if all reagents and no inhibitors are present. If a reaction takes place, all products are formed. Note that reactions without products as well as reactions with neither reagents nor inhibitors will be excluded here.
While typically the set of species is known, the set of reactions is not known. Rather, only a superset of potential reactions is postulated. The goal of the proposed formulation is to find an optimal (in some sense) set of reactions out of such a superset. To that extent binary variables yi are introduced, indicating if a reaction is possible or not (yi=0 connection not present, yi=1 connection present).
A set of experiments is performed, indexed by the superscript k=1, . . . , ne. In each experiment a subset of species is introduced to the system and another subset is excluded from the system. These are summarized by the index sets M^k,1 and M^k,0 respectively (two for each experiment). In the proposed formulation, constants are introduced for all such species, respectively xj^k=1 and xj^k=0. […] In the experiments a third subset of the species is measured (index set M^k,2) and for the remaining species no information is available. In the proposed formulation for each of the experiments and each such species a binary decision variable xj^kε{0,1} is introduced indicating if the species j is present (xj^k=1) or not (xj^k=0) in the experiment k according to the model predictions. […] This has some computational advantages.
In the present study, our ILP formulation was utilized in two different circumstances. For the creation of the cell-type specific pathway using combinations of inhibitors and stimuli our ILP formulation included 27887 constraints and 9732 variables. For each drug case, where the reduced and optimized pathway was utilized, we had 2477 constraints and 947 variables.
For the identification of the drug effects we make use of the second dataset in HepG2s where drugs are applied together with the same set of ligands. In this case, the ILP formulation is being used with the HepG2 specific topology (topology obtained from the previous step) and not the generic map.

JNK1/2 kinases = conditions: kinase profiles, ref [32]; cited from earlier work
c-JUN (Ser63) = test: Gefitinib dose response of c-JUN (Ser63) signal in HepG2 after IL1α (FIG. 3i); assay type: cell-based; conditions: Gefitinib 20 uM down to 27 nM, 45 min, IL1α 10 ng/ml, 30 min, linear fit
Description: as §1

RAF/MEK/ERK pathway = conditions: human tumor cell lines, ref [33]; cited from earlier work
p38α = p38α (Homo sapiens, UniProt Q16539); conditions: refs [32],[45]; cited from earlier work
Sequence of p38α (Q16539 whole entry): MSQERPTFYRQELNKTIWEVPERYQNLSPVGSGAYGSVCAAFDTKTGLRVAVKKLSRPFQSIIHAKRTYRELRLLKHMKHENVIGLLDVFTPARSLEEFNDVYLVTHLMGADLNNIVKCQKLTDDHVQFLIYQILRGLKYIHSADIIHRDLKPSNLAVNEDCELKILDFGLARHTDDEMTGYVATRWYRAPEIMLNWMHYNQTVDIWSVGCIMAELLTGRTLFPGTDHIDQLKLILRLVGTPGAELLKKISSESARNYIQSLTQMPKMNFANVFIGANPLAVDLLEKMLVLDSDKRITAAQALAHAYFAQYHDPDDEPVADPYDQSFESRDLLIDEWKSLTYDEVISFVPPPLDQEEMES

SMILES | IκB-α signals upon IL1α and TNFα stimuli (HepG2 cells; Erlotinib 1 uM, FIG. 4) | Drug effect on the TRAF6→MAP3k7 reaction (HepG2 specific topology; HepG2 topology, ILP, Erlotinib 1 uM) | Drug effect on the JNK→c-JUN branch (HepG2 specific topology; Erlotinib 1 uM, Sorafenib 3 uM) | Drug effect on downstream reactions of the TGFα branch (TGFα→GRB2→SOS→RAS→PI3K and RAS→RAF1→MEK1/2→ERK1/2) (HepG2 specific topology; Lapatinib 3 uM, Erlotinib 1 uM) | Effect on c-Jun signaling (HepG2 specific topology) | Affinity for the directly upstream JNK1/2 kinases (JNK1/2 kinases) | TGFα induced MEK1/2, ERK1/2, and AKT phosphosignals (HepG2 cells; Lapatinib 3 uM, 45 min before TGFα 100 ng/ml, early response (5 and 25 min), FIG. 3e) | Activation of AKT by the HGF and INS path (HepG2 cells; Lapatinib 3 uM, FIG. 3e) | Drug effect on the PI3K→...→AKT branch (HepG2 specific topology; HepG2 topology, ILP, Lapatinib 3 uM) | IL1α- and (IL1α+TGFα)-induced cJUN activity (HepG2 cells; Gefitinib 3 uM, IL1α 10 ng/ml, FIG. 3f) | Activation of cJUN signal induced by the IL1α stimuli, dose response (c-JUN (Ser63)) | HSP27 phosphorylation upon IL1α treatment (HepG2 cells; Sorafenib 3 uM, FIG. 3h) | MEK1 phosphorylation (HepG2 cells; Sorafenib 3 uM, FIG. 3h) | Drug effect on the p38 path (HepG2 specific topology; HepG2 topology, ILP, Sorafenib 3 uM) | Drug effect on the RAF→ERK1/2 reaction (HepG2 specific topology; HepG2 topology, network optimization, Sorafenib 3 uM) | Inhibition of activation of the RAF/MEK/ERK pathway (RAF/MEK/ERK pathway) | Target affinity to p38α (p38α)
C#Cc1cccc(Nc2ncnc3cc(OCCOC)c(OCCOC)cc23)c1 [Erlotinib] | inhibited in an IL1α-dependent but TNFα-independent manner | shows an effect in the TRAF6→MAP3k7 reaction | has the same effects as Gefitinib; also recorded: removal of the JNK→cJUN reaction | has the same effects as Gefitinib | do not affect c-Jun signaling | no medium or high affinity |  |  |  |  |  |  |  |  |  |  | 
CS(=O)(=O)CCNCc1ccc(-c2ccc3ncnc(Nc4ccc(OCc5cccc(F)c5)c(Cl)c4)c3c2)o1 [Lapatinib] |  |  |  | complete removal of the downstream reactions of the TGFα branch | do not affect c-Jun signaling |  | blocks | cannot be blocked | not removed |  |  |  |  |  |  |  | 
COc1cc2ncnc(Nc3ccc(F)c(Cl)c3)c2cc1OCCCN1CCOCC1 [Gefitinib] |  |  | removal of the JNK→c-JUN branch; also recorded: removal of the JNK→cJUN reaction | alters the topology in a very similar pattern as Lapatinib | affects c-Jun signaling as well as EGFR signaling | no medium or high affinity |  |  |  | potent inhibition; also recorded: significant reduction of the cJUN activity; also recorded: previously unknown inhibition of cJUN in the IL1α pathway; also recorded: inhibits signaling downstream the Interleukin-1alpha (IL1α) pathway | can reduce the activation of cJUN signal; also recorded: does not follow a typical dose-response curve; also recorded: reduces cJUN activation |  |  |  |  |  | 
CNC(=O)c1cc(Oc2ccc(NC(=O)Nc3ccc(Cl)c(C(F)(F)F)c3)cc2)ccn1 [Sorafenib] |  |  | blocks the JNK→c-JUN branch; also recorded: removal of the JNK→cJUN reaction |  |  | no medium or high affinity |  |  |  |  |  | complete HSP27 inhibition | reduces but does not block | affects the p38 path; also recorded: inhibition of the pathway downstream of p38 | does not remove the RAF→ERK1/2 reaction | does not inhibit activation of the RAF/MEK/ERK pathway in all human tumor cell lines | target affinity
